Source: patent US20130197073A1, “HYPOCHOLESTEROLEMIC, ANTI-INFLAMMATORY AND ANTIEPILEPTIC NEUROPROTECTIVE COMPOUND” (NEURON BIOPHARMA, S.A., priority 2010, published 2013)

Tests used:
[1] = system: human neuroblastoma SK-N-MC cells; test: Inhibition of DNA fragmentation (sub-G1, flow cytometry) in camptothecin cell model of apoptosis; format: cell-based; settings: pretreatment 24 hours at 10 μM; 50 μM CPT 6 hours
Protocol: The assay was performed on human neuroblastoma SK-N-MC cells in culture, maintained as described in section 2.1.
The inhibition caused by compound NST0060 with respect to apoptosis caused by treatment with camptothecin (CPT), which inhibits the topoisomerase I enzyme, prevents DNA duplication and triggers apoptotic cell death. These cells, not exceeding 15 passages, were seeded on 6-well plates treated for adherent cells with a cell concentration of 7×10^5 cells/well; 2 wells of the plate were seeded for each assay condition.
After 24 hours of cell incubation (at 37° C. and 5% CO2), cell pretreatment was performed with 10 and 40 μM of NST0060 for 24 hours; they were subsequently treated with 50 μM CPT for 6 hours. Furthermore, Z-VAD-fmk at 50 μM was used as positive control for inhibition.
After treatment, the cells were collected along with their culture medium and centrifuged at 300×g for 5 minutes. The medium was removed, a washing was performed with PBS and the cells were fixed for 2 minutes with 500 μl of 70% ethanol at −20° C. […] After this time they were analyzed by flow cytometry, comparing the fluorescence of propidium iodide with respect to the amount of DNA. The percentage of apoptosis was measured on the sub-G1 region of each of the conditions.

[2] = biological target: T1, 3-hydroxy-3-methylglutaryl coenzyme A reductase (HMGR) (Homo sapiens, UniProt P04035); test: Inhibition of HMGR enzyme activity in vitro, NADPH absorbance at 340 nm; format: biochemical; settings: active forms (activated with 0.1 N NaOH); five independent assays in duplicate
T1 sequence (P04035 340-888 limits assumed): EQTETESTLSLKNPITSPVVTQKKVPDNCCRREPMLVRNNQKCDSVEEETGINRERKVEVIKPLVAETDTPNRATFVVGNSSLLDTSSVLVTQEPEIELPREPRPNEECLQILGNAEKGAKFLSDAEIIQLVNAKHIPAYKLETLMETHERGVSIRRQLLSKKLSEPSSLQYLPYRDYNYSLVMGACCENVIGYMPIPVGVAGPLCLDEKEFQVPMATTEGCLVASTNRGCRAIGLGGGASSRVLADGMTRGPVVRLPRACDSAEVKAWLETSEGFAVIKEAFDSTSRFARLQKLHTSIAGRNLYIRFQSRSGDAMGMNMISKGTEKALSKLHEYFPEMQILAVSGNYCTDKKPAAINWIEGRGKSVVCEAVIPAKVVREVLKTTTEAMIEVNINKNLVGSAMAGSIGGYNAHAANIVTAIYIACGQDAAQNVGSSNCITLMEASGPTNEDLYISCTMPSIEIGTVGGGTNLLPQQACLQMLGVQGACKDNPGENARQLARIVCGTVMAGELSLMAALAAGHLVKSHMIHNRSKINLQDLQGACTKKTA
Protocol: The assay was carried out in a 96-well plate, with a total reaction volume of 200 μl.

TNFα [3] = test: LPS model of systemic inflammation in mice, plasma TNFα, NST0060 compared with simvastatin; format: in vivo; settings: two i.p. doses of 50 mg/kg (lactone forms); 2 hours after LPS 8 mg/kg i.p.
Excerpt: The investigators considered necessary to evaluate alternative activities with respect to hypocholesterolemic and neuroprotective activities given the characteristics and properties of the molecule. […] To evaluate this activity, a model of systemic shock in mice induced by lipopolysaccharide (LPS), a component of the gram negative bacteria structure that induces a cytokine-mediated, mainly TNFα-mediated, inflammatory response was used.
(§1) All the animals included during the experimental process were 12-week old male C57BL6 mice. The experiments were carried out strictly complying with the standard entitled Guidance on the Operation of Animals (Scientific Procedures, Act. 1986). The animals were subjected to their respective quarantine period and were treated with maximum precaution to minimize possible contaminations during treatments and handling.
In both cases 0.5% methyl cellulose in physiological saline, which was administered to mice in the control group with the same administration regimen, was used as a vehicle. Peripheral systemic inflammation was induced one hour after the last treatment by means of a single i.p. injection of LPS at 8 mg/kg. Two hours later blood was taken and plasma was obtained, which was used to evaluate the anti-inflammatory effect by analyzing plasma concentrations of TNFα by means of ELISA.

male C57BL6 mice = test: LPS model of systemic shock in mice, survival and symptomatology score; format: in vivo; settings: LPS 8 mg/kg i.p.
Protocol: as §1, with “To that end an additional assay was carried out in which all” for “All”, “included” for “included during the experimental process”
(§2) The mice were split up into three experimental groups: control group (n=8); control+LPS group (n=16); NST0060+LPS group (n=16). The mice were i.p. administered two doses of 50 mg/kg of NST0060 (in its lactone form) spaced out 12 hours from one another. 0.5% methyl cellulose in physiological saline, which was administered to the mice in the control groups with the same administration regimen, was used as a vehicle. Peripheral systemic inflammation was induced one hour after the last treatment by means of a single i.p. injection of LPS at 8 mg/kg. Half the mice in which systemic shock was induced (8 animals from the control+LPS group and 8 animals from the NST0060+LPS group) were sacrificed 2 hours after the inoculation of the LPS. Blood was taken and plasma was obtained, and both were frozen. […] The concentration of the inflammatory cytokines TNFα and IL-1β was evaluated in the plasma obtained by means of ELISA.

TNFα [4] = test: LPS model of systemic shock in mice, plasma TNFα at 2 and 4 hours; format: in vivo; settings: two i.p. doses of 50 mg/kg; 2 and 4 hours post-LPS
Protocol: as §1, with “To that end an additional assay was carried out in which all” for “All”, “included” for “included during the experimental process”
as §2

IL-1β = test: LPS model of systemic shock in mice, plasma IL-1β; format: in vivo; settings: two i.p. doses of 50 mg/kg; 2 hours post-LPS
Protocol: as §1, with “To that end an additional assay was carried out in which all” for “All”, “included” for “included during the experimental process”
as §2

Compound: CCCC(CCC)C(=O)O[C@H]1C[C@@H](C)C=C2C=C[C@H](C)[C@H](CC[C@@H]3C[C@@H](O)CC(=O)O3)[C@H]21 [NST0060, 2-propylpentanoic acid (1S,3R,7S,8S,8aR)-1,2,3,7,8,8a-hexahydro-3,7-dimethyl-8-[2-[(2R,4R)-tetrahydro-4-hydroxy-6-oxo-2H-pyran-2-yl]ethyl]-1-naphthalenyl ester]
- maximum protection against apoptosis (DNA fragmentation) caused by CPT [1]: 41%
- IC50 [2]: 126 ± 34.6 nM
- TNFα plasma levels with respect to the control group (TNFα [3]): large decrease in said levels that is significant with respect to the control group
- TNFα plasma levels with respect to the simvastatin group (TNFα [3]): statistically significant TNFα plasma level reductions with respect to the group of simvastatin
- survival rate / mortality induced by LPS (male C57BL6 mice; two i.p. doses of 50 mg/kg (lactone form), observed 15 days): mortality induced by LPS is prevented in a statistically significant manner
- score associated with the symptomatology (0 to 3) (male C57BL6 mice; two i.p. doses of 50 mg/kg, statistically significant at 24 hours): lower severity of the systemic shock process
- plasma concentration of TNFα (inflammatory response) (TNFα [4]): decrease in the inflammatory response at both 2 and 4 hours post-LPS
- cytokine IL-1β plasma levels (IL-1β): statistically significant decrease in cytokine IL-18 plasma levels
